The results in this text go back to ChEMBL document CHEMBL1201862, “PubChem BioAssay data set” (2004).

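Exposure lasted 48 hours, with cells grown in 96-well plates and compounds tested at five concentrations. GI50 = concentration required for 50% inhibition of growth.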 Calls of active or inactive are those of the source. Cut-off read from the data, not from the text of the source: active = GI50 up to about 1.1 µM and inactive = higher.

Holding throughout (assay): DTP human tumour cell line panel, 48 h
The test system of test [1] is ACHN.
Test [2] concerns CAKI-1.
Test [3] has as its system HT-29.
Test [4] concerns Hs-578T.
Test [5] has as its system IGROV-1.
For test [6], the system named is MCF7.
Test [7] concerns NCI-H460.
Test [8] deals with OVCAR-3.
Test [9] deals with RPMI-8226.
The subject of test [10] is SF-268.
Test [11] concerns SK-MEL-2.
Test [12] relates to SK-MEL-5.
Test [13] has as its system SK-OV-3.
Test [14] has as its system SNB-75.
Test [15] has as its system SW-620.
For test [16], the system named is U-251.
Test [17] concerns UACC-62.
Test [18] relates to MOLT-4.
The test system of test [19] is K562.
The subject of test [20] is OVCAR-5.

A word on the GI50: it is the concentration that inhibits growth by half. Consider `O=C(C#Cc1cn(C2CC(O)C(CO)O2)c(=O)[nH]c1=O)c1ccccc1` (stereo unspecified), for which the GI50 in test [1] is 83.4 µM (inactive); in test [2], > 100 µM (inactive); in test [3], > 100 µM (inactive); in test [4], 79.3 µM (inactive); in [5] it was > 100 µM (inactive); in [6] it was 33.3 µM (inactive). Moreover, the GI50 in [7] is > 100 µM (inactive); in test [8], 21.1 µM (inactive); in test [9] it was 44 µM (inactive); in [10] it was > 100 µM (inactive); in test [11] it was > 100 µM (inactive); in [12], 88.7 µM (inactive). The GI50 in test [13] was > 100 µM (inactive); in [14], > 100 µM (inactive); in test [15] it was 25.2 µM (inactive); in test [16] it was > 100 µM (inactive); in [17] it was > 100 µM (inactive).
As to `O=C(CSCC(=O)N/N=C\c1cccc([N+](=O)[O-])c1)N/N=C\c1cccc([N+](=O)[O-])c1`, the GI50 in test [1] is 14 µM (inactive); in [2], 23.3 µM (inactive); in test [3], > 100 µM (inactive); in test [4], 45.4 µM (inactive); in [5], 23.1 µM (inactive); in test [6], 38.5 µM (inactive). The GI50 in test [18] was > 100 µM (inactive); in test [7], 69.2 µM (inactive); in test [8] it was 22.9 µM (inactive); in test [9], > 100 µM (inactive); in test [10], 39.9 µM (inactive); in test [11], 37.3 µM (inactive). Moreover, the GI50 in test [12] was > 100 µM (inactive); in test [13], 52.1 µM (inactive); in test [14] it was 37.1 µM (inactive); in test [15], > 100 µM (inactive); in test [16] it was 13.5 µM (inactive); in test [17], 70.8 µM (inactive).
Turning to `O=C1NC2CCCCC2NC1=C(C(=O)c1ccccc1)C(=O)c1ccccc1` (stereo unspecified), the GI50 was 33.6 µM (inactive) in [1]; 36.4 µM (inactive) in [2]; 36.8 µM (inactive) in test [3]; 62.8 µM (inactive) in [4]; 26.3 µM (inactive) in test [5]; 35.5 µM (inactive) in [19]. Moreover, the GI50 was 16.9 µM (inactive) in test [6]; 20.5 µM (inactive) in test [18]; 27.4 µM (inactive) in [7]; 67.5 µM (inactive) in test [8]; > 100 µM (inactive) in test [20]; 28.8 µM (inactive) in test [9]. The GI50 is 69.2 µM (inactive) in [10]; 33.6 µM (inactive) in [11]; 27.5 µM (inactive) in [12]; 25.4 µM (inactive) in [13]; 39.3 µM (inactive) in test [15]; 26.6 µM (inactive) in [16]. Besides, the GI50 in [17] is 22.8 µM (inactive).
For the compound `CC(=O)OCC(C)C1=C(O)C(=O)C2(C)C/C=C(/C)CC/C=C(\C)CCC(O)C(C)CCC12` (stereo unspecified), the GI50 in [1] is 16.7 µM (inactive); in [2] it was 17.3 µM (inactive); in test [3], 17.3 µM (inactive); in [4], 19.6 µM (inactive); in [5], 15.2 µM (inactive); in test [19], 14.1 µM (inactive). The GI50 in test [6] is 24.9 µM (inactive); in test [18] it was 10 µM (inactive); in test [7], 14.7 µM (inactive); in [8], 15.1 µM (inactive); in test [20], 17.3 µM (inactive); in test [9] it was 11.9 µM (inactive). Besides, the GI50 was 18 µM (inactive) in [10]; 20.7 µM (inactive) in [11]; 17.7 µM (inactive) in [12]; 16.2 µM (inactive) in [14]; 19.2 µM (inactive) in [15]; 17 µM (inactive) in test [16]. For the same compound, in test [17], the GI50 was 18.8 µM (inactive).
Turning to `O=C(/C=c1\oc(=O)/c(=C/C(=O)c2ccc(Cl)cc2)oc1=O)c1ccc(Cl)cc1`, the GI50 in [1] was > 100 µM (inactive); in test [2], > 100 µM (inactive); in test [3] it was > 100 µM (inactive); in test [4] it was 34.2 µM (inactive); in test [5], 63.4 µM (inactive); in [19], > 100 µM (inactive). In addition, the GI50 in test [6] was > 100 µM (inactive); in [18], 23.8 µM (inactive); in test [7], > 100 µM (inactive); in test [8] it was 49.9 µM (inactive); in test [20] it was > 100 µM (inactive); in test [9] it was > 100 µM (inactive). In addition, the GI50 in test [10] was 97.3 µM (inactive); in test [11] it was > 100 µM (inactive); in test [12], > 100 µM (inactive); in test [13], > 100 µM (inactive); in [16], > 100 µM (inactive); in test [17], > 100 µM (inactive).
Turning to `CCOC(=O)c1ncn(CCc2ccc(Cl)cc2)c1C`, the GI50 in test [1] is > 100 µM (inactive); in test [2], 80.2 µM (inactive); in test [3], > 100 µM (inactive); in [4] it was > 100 µM (inactive); in [5] it was > 100 µM (inactive); in [19] it was > 100 µM (inactive). Besides, the GI50 in test [6] is > 100 µM (inactive); in test [18], > 100 µM (inactive); in test [7], > 100 µM (inactive); in test [8] it was > 100 µM (inactive); in test [20], > 100 µM (inactive); in test [9], 62.7 µM (inactive). Further, the GI50 in test [10] is 92.9 µM (inactive); in test [11], > 100 µM (inactive); in test [12], 85.9 µM (inactive); in [15], > 100 µM (inactive); in test [16], > 100 µM (inactive); in test [17], 42.4 µM (inactive).
Consider `Cc1ccc(NCC2CC/C(=C\c3ccc(Cl)cc3)C2=O)cc1` (stereo unspecified), for which the GI50 in test [1] was 10.3 µM (inactive); in [2], 15.2 µM (inactive); in [3], 12.4 µM (inactive); in [4] it was 29 µM (inactive); in test [5] it was 16.6 µM (inactive); in [19], 1.74 µM (inactive). The GI50 in [6] is 2.83 µM (inactive); in test [18] it was 3.84 µM (inactive); in [7], 21.7 µM (inactive); in test [8], 14.3 µM (inactive); in test [20] it was 22 µM (inactive); in test [9], 0.635 µM (active). The GI50 in test [10] was 18.5 µM (inactive); in test [12], 14.5 µM (inactive); in test [13] it was > 100 µM (inactive); in test [14] it was > 100 µM (inactive); in test [15] it was 3.67 µM (inactive); in test [16], 17 µM (inactive). Also, the GI50 in test [17] was 18.4 µM (inactive).
Turning to `COc1ccc(OCc2ccc3nc(-c4ccccc4)c(Cl)nc3c2)cc1`, the GI50 is 27.9 µM (inactive) in test [1]; 22.3 µM (inactive) in test [2]; 76.7 µM (inactive) in test [3]; 23.4 µM (inactive) in test [4]; 38 µM (inactive) in [5]; 0.0889 µM (active) in test [19]. In addition, the GI50 is 37.6 µM (inactive) in test [6]; 34.4 µM (inactive) in test [18]; 16.7 µM (inactive) in test [7]; 84.3 µM (inactive) in [8]; 32.1 µM (inactive) in [20]; 9.93 µM (inactive) in test [9]. Besides, the GI50 in [10] is 25.2 µM (inactive); in [11] it was 26.9 µM (inactive); in test [12], 6.89 µM (inactive); in test [14], 36 µM (inactive); in test [15] it was 43.2 µM (inactive); in test [16] it was 12.3 µM (inactive). The GI50 in test [17] is > 10 µM (inactive).
With `C=C(C)C(=O)O[C@H]1[C@H]2[C@H](OC(=O)[C@H]2C)[C@H](O)[C@@H](C)[C@@H]2C=CC(=O)[C@]21C`, the GI50 in [1] was 4.11 µM (inactive); in test [2], 2.55 µM (inactive); in [3], 3.33 µM (inactive); in [4], 4.9 µM (inactive); in test [5], 2.37 µM (inactive); in test [6] it was 4.19 µM (inactive). The GI50 was 3 µM (inactive) in test [18]; 1.82 µM (inactive) in [7]; 4.52 µM (inactive) in [8]; 8.61 µM (inactive) in test [20]; 2.85 µM (inactive) in test [9]; 3.4 µM (inactive) in test [10]. Moreover, the GI50 was 4.13 µM (inactive) in [11]; 5.47 µM (inactive) in test [12]; 5.9 µM (inactive) in [13]; 2.72 µM (inactive) in test [15]; 3.16 µM (inactive) in test [16]; 1.77 µM (inactive) in test [17].
Turning to `CC(C)(C)C1=CC(C)(n2[nH]c(=O)n(-c3ccccc3)c2=O)C=C(C(C)(C)C)C1=O`, the GI50 in test [1] is > 100 µM (inactive); in test [2] it was > 100 µM (inactive); in test [3], > 100 µM (inactive); in test [4], > 100 µM (inactive); in test [19], 47 µM (inactive); in [6], > 100 µM (inactive). For the same compound, the GI50 in test [7] was > 100 µM (inactive); in test [9] it was 25.2 µM (inactive); in [10] it was > 100 µM (inactive); in [11] it was > 100 µM (inactive); in test [12], > 100 µM (inactive); in test [13], > 100 µM (inactive). In addition, the GI50 in [14] is 98.4 µM (inactive); in test [15], > 100 µM (inactive); in [16], > 100 µM (inactive); in [17], 75.3 µM (inactive).
